The results in this text go back to patent US12479825B2, “Melanocortin subtype-2 receptor (MC2R) antagonists and uses thereof” (Crinetics Pharmaceuticals, Inc., priority 2019, dated 2025).

In the experiment the target is T1, hMC2 receptor (Homo sapiens, UniProt Q01718).
T1 construct: host or cells: CRE-bla-CHO-K1 cells, crude membrane fraction
T1 sequence (Q01718 whole entry): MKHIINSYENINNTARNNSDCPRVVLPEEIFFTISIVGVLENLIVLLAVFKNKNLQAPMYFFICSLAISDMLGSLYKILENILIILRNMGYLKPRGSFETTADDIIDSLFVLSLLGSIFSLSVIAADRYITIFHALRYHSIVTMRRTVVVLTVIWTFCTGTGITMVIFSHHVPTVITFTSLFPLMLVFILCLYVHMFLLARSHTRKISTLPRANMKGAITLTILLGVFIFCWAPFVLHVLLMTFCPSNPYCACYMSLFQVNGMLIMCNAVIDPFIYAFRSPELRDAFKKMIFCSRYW
T1 sequence (Q8TCY5 whole entry partner): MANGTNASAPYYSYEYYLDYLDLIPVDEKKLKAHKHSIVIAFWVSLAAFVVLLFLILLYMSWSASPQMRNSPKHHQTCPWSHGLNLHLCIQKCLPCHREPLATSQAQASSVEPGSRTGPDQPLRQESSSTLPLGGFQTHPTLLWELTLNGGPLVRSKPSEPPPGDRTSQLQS
Briefly: hMC2 membrane binding assay ([125I]ACTH (1-39) Tyr23, SPA). The following applies: crude hMC2R membranes from CRE-bla-CHO-K1 cells expressing hMC2 receptor and hMRAP; 0.2 nM [125I]ACTH (1-39) Tyr23; 1.5 hours at room temperature; read-out: MC2R binding potency. As for the experimental part:
Crude membrane fractions are prepared from CRE-bla-CHO-K1 cells stably expressing hMC2 receptor and hMRAP accessory protein (Thermo Fisher). The cells are grown to 85-100% confluence on standard tissue culture dishes in GlutaMax DMEM growth media (Gibco) with following additives: 10% dialyzed FBS (Gemini), 0.1 mM NEAA (Gibco), 25 mM HEPES (Gibco), 5 μg/mL blasticidin (Goldbio), 100 μg/mL zeocin (Invitrogen), 600 μg/mL hygromycin (Goldbio). To prepare membranes, cells are scraped and collected in 1× Dulbecco's phosphate buffered saline (Corning) and then pelleted at 1000 RPM's. The cell pellet is reconstituted in membrane preparation buffer (20 mM HEPES, 6 mM MgCl2 and 1 mM EGTA, protease inhibitor tablets (Pierce) adjusted to pH 7.4), homogenized using a dounce homogenizer, and the resulting membrane fraction is pelleted by centrifugation at 12,000 RPM's. The membrane pellet is resuspended in membrane preparation buffer, snap freezed and stored at −80° C. for later use.
The hMC2 membrane binding assay utilizes the following components: radiolabel [^125I]ACTH (1-39) Tyr23 (PerkinElmer), wheat germ agglutinin coated PVT SPA beads (PerkinElmer), crude hMC2R membranes, and compounds. Briefly hMC2R membranes are incubated with SPA beads in binding assay buffer (50 mM HEPES, 5 mM MgCl2, 1 mM CaCl2, 0.2% BSA, protease inhibitor tablets (Pierce) adjusted to pH7.4) prior to assay initiation. A dose response of compound (the final concentration of compound is typically 0-10,000 nM), SPA membranes, and [^125I]ACTH (1-39) Tyr23 at a final concentration of 0.2 nM is plated in a 96-well assay plate and allowed to incubate 1.5 hours at room temperature. Assay plates are read using a Top Count NXT and Ki values for compounds are determined using a GraphPad Prism 6 non-linear regression analysis.
Take `CCOc1ncccc1-c1ccc(N2CCN(C(=O)c3ccc(Cl)cc3C(F)(F)F)C[C@H]2CC)c(O[C@@H]2CCNC2)n1` [1-7, 5-[(2R)-4-[4-chloro-2-(trifluoromethyl)benzoyl]-2-ethylpiperazin-1-yl]-2′-ethoxy-6-[(3R)-pyrrolidin-3-yloxy]-2,3′-bipyridine]: the Ki is < 0.01 µM.
Consider `CCOc1ncccc1-c1ccc(N2CCN(C(=O)C3(C(F)(F)F)CCCC3)C[C@H]2CC)c(O[C@@H]2CCN(C)C2)n1` [1-3, 2′-ethoxy-5-[(2R)-2-ethyl-4-[1-(trifluoromethyl)cyclopentanecarbonyl]piperazin-1-yl]-6-{[(3R)-1-methylpyrrolidin-3-yl]oxy}-2,3′-bipyridine], for which the Ki fell in the range of 0.01 to 0.1 µM.
The same measure for `CCOc1ncccc1-c1ccc(N2CC[C@@H](Oc3ccc(Cl)cc3C(F)(F)F)C[C@H]2CC)c(C(=O)N[C@@H]2CCN(C)C2)n1` (single isomer, unassigned) [2-9, 5-[(2R,4R)*-4-[4-chloro-2-(trifluoromethyl)phenoxy]-2-ethylpiperidin-1-yl]-2′-ethoxy-N-[(3R)-1-methylpyrrolidin-3-yl]-[2,3′-bipyridine]-6-carboxamide]: < 0.01 µM; for `CCOc1ncccc1-c1ccc(N2CC[C@@H](Oc3ccc(C(F)(F)F)nc3C#N)C[C@H]2CC)c(C(=O)N[C@H]2CCN(C)C2)n1` (single isomer, unassigned) [2-22]: < 0.01 µM; for `CCOc1ncccc1-c1ccc(N2CCN(C(=O)c3ccc(F)cc3C(F)F)C[C@H]2CC)c(OCCNC)n1` [1-10, [2-({5-[(2R)-4-[2-(difluoromethyl)-4-fluorobenzoyl]-2-ethylpiperazin-1-yl]-2′-ethoxy-[2,3′-bipyridin]-6-yl}oxy)ethyl](methyl)amine]: < 0.01 µM.
The result for `CCOc1ccc(C(=O)N2CCN(c3ccc(-c4cccnc4OCC)nc3OCCN(C)C)[C@H](CC)C2)c(C(F)(F)F)n1` [1-17, [2-({2′-ethoxy-5-[(2R)-4-[6-ethoxy-2-(trifluoromethyl)pyridine-3-carbonyl]-2-ethylpiperazin-1-yl]-[2,3′-bipyridin]-6-yl}oxy)ethyl]dimethylamine] reads < 0.01 µM; that for `CCOc1ccccc1-c1ccc(N2CC[C@H](Oc3ccc(Cl)cc3C#N)C[C@@H]2C)c(C(=O)N[C@@H]2CCN(C)C2)n1` (mixture of isomers) [2-24, 3-[cis-4-(4-chloro-2-cyanophenoxy)-2-methylpiperidin-1-yl]-6-(2-ethoxyphenyl)-N-[(3R)-1-methylpyrrolidin-3-yl]pyridine-2-carboxamide], < 0.01 µM.
The same measure for `CCOc1ncccc1-c1ccc(N2CCN(C(=O)c3ccc(Cl)cc3Cl)C[C@H]2CC)c(OCCNC)n1` [1-28, [2-({5-[(2R)-4-(2,4-dichlorobenzoyl)-2-ethylpiperazin-1-yl]-2′-ethoxy-[2,3′-bipyridin]-6-yl}oxy)ethyl](methyl)amine]: < 0.01 µM; for `CCOc1ncccc1-c1ccc(N2CCN(C(=O)N3CCC[C@H]3C(F)(F)F)C[C@H]2CC)c(OCCN)n1` [1-14, 2-({2′-ethoxy-5-[(2R)-2-ethyl-4-[(2S)-2-(trifluoromethyl)pyrrolidine-1-carbonyl]piperazin-1-yl]-[2,3′-bipyridin]-6-yl}oxy)ethan-1-amine]: < 0.01 µM.
Turning to `CCOc1ncccc1-c1ccc(N2CCN(C(=O)c3ccc(F)cc3Cl)C[C@H]2CC)c(-c2nnc(N)[nH]2)n1` [4-3, (R)-(4-(6-(5-amino-4H-1,2,4-triazol-3-yl)-2′-ethoxy-[2,3′-bipyridin]-5-yl)-3-ethylpiperazin-1-yl)(2-chloro-4-fluorophenyl)methanone], the Ki lay in the range of 0.1 to 1 µM.
The result for `CCOc1ncccc1-c1ccc(N2CC[C@@H](Oc3ccc(C(F)(F)F)cc3C#N)C[C@H]2CC)c(C(=O)N[C@@H]2CCN(C)C2)n1` (single isomer, unassigned) [2-11] reads < 0.01 µM.
Consider `CCOc1ccc(C(=O)N2CCN(c3ccc(-c4cccnc4OCC)nc3O[C@H](C)CN)[C@H](CC)C2)c(C(F)(F)F)n1` [1-21, (2R)-2-({2′-ethoxy-5-[(2R)-4-[6-ethoxy-2-(trifluoromethyl)pyridine-3-carbonyl]-2-ethylpiperazin-1-yl]-[2,3′-bipyridin]-6-yl}oxy)propan-1-amine], for which the Ki was < 0.01 µM.
The same measure for `CCOc1ncccc1-c1ccc(N2CC[C@@H](Oc3ccc(C(F)(F)F)cc3C#N)C[C@H]2CC)c(C(=O)N[C@@H]2CN3CCC2CC3)n1` (racemic) [2-20, N-[(3S)-1-azabicyclo[2.2.2]octan-3-yl]-5-[cis*-4-[2-cyano-4-(trifluoromethyl)phenoxy]-2-ethylpiperidin-1-yl]-2′-ethoxy-[2,3′-bipyridine]-6-carboxamide]: < 0.01 µM.
The same measure for `CCOc1ncccc1-c1ccc(C2CCN(c3ccc(C(F)(F)F)nc3C#N)CC2)c(OCCNC)n1` [3-2, 3-(4-{2′-ethoxy-6-[2-(methylamino)ethoxy]-[2,3′-bipyridin]-5-yl}piperidin-1-yl)-6-(trifluoromethyl)pyridine-2-carbonitrile]: < 0.01 µM.
